Results published in PMC4028696, “Development of a screen to identify selective small molecules active against patient-derived metastatic and chemoresistant breast cancer cells” (Breast Cancer Research : BCR, 2013).
Where a name gives a salt, the structure may show the parent alone. Peptide text beside a SMILES is read from it. * marks the point of attachment. Cbz = O=C(OCc1ccccc1)*; CH2F = FC*

How the values were obtained:
Assay type in all cases: cell-based, human
MCF-7 cells [1] = experiment: Pan-caspase inhibitor effect on C-6 induced cell death; settings: data not shown
LC3A/B-II = experiment: Western blot for LC3A/B-II (autophagy); settings: most cells, 50 μM, 24 hours
Procedure: Cells were lysed in cold radioimmunoprecipitation assay buffer (50 mM Tris HCl, 150 mM NaCl, 0.1% sodium dodecyl sulfate (SDS), 0.5% sodium deoxycholate, 1% Triton X-100, pH = 8.0) supplemented with protease inhibitor cocktail (Sigma), phosphatase inhibitor cocktail 2 (Sigma) and 1 mM dithiothreitol (DTT) (Sigma). The lysate was sonicated for 30 seconds using a 450 Sonifier (Branson Ultrasonics, Danbury, CT, USA) and was centrifuged at 14,000 RPM for five minutes at 4°C. The protein concentration was determined using the BCA protein assay kit (Peirce, Rockford, IL, USA) and the samples were boiled for five minutes with 4× SDS Laemmli buffer. Equal amounts of protein were resolved on SDS polyacrylamide gels and transferred to an Immobilon-FL PVDF membrane (EMD Millipore). Blots were blocked in Odyssey Blocking Buffer (LI-COR, Lincoln, NE, USA) for one hour at room temperature, stained with primary antibodies overnight at 4°C, washed, and stained with IR800CW or IR680 anti-mouse or rabbit secondary antibodies (LI-COR) for one hour at room temperature. Blots were imaged with the Odyssey Infrared Imaging System (LI-COR).

MCF-7 cells [2] = experiment: Dose response assay, ATPlite viability, four days; settings: MCF-7, four days of treatment, ATP viability
Procedure: (§1) Cells were seeded in white 96-well plates (Costar, Tewksbury, MA, USA) in 100 μL of their respective media at varying densities to achieve 80% to 90% confluency after five days in culture. The compounds dissolved in DMSO were diluted in their corresponding media containing 2% FBS and an EP Motion 5075 (Eppendorf North America, Hauppauge, NY, USA) liquid handler was utilized to perform a serial dilution. […] After the cells were cultured for 24 hours, the media were aspirated and the cells were treated with the compounds and vehicle controls in triplicate. After four days of treatment, viability was determined utilizing the ATPlite 1step assay system (Perkin Elmer, Waltham, MA, USA) according to the manufacturer's instructions. Luminescence measurements were acquired utilizing a Perkin Elmer 2104 EnVision plate reader. Raw luminescence values were normalized to the DMSO vehicle control wells.

MDA-MB-231 cells = experiment: Dose response assay, ATPlite viability, four days; settings: MDA-MB-231, four days of treatment, ATP viability
Procedure: as §1

PE1007070 cells = experiment: Dose response assay, ATPlite viability, four days; settings: PE1007070, four days of treatment, ATP viability
Procedure: as §1

PE1008032 cells = experiment: Dose response assay, ATPlite viability, four days; settings: PE1008032, four days of treatment, ATP viability
Procedure: as §1

PE904557a cells = experiment: Dose response assay, ATPlite viability, four days; settings: four days of treatment, ATP viability, N/A = data could not be fitted
Procedure: as §1

T47D cells = experiment: Dose response assay, ATPlite viability, four days; settings: four days of treatment, ATP viability
Procedure: as §1

[3] = Homo sapiens, 96 h, N/A = data could not be fitted

Compound	EC50 (MCF-7 cells [2]; Homo sapiens, MCF7, 96 h)	EC50 (MDA-MB-231 cells; Homo sapiens, 96 h)	EC50 (T47D cells; Homo sapiens, 96 h)	EC50 (PE1007070 cells; [3])	EC50 (PE1008032 cells; [3])	EC50 (PE904557a cells; Homo sapiens, 96 h)	further results
COC(=O)C[C@H](NC(=O)[C@H](C)NC(=O)[C@@H](NC(=O)OCc1ccccc1)C(C)C)C(=O)CF [Z-VAD-FMK] (Cbz-Val-Ala-Asp(OMe)-CH2F)	–	–	–	–	–	–	effect on C-6 induced cell death (MCF-7 cells [1]): did not affect
CCN(CC)CCCC(C)Nc1ccnc2cc(Cl)ccc12 (stereo not shown) [chloroquine, Chloroquine]	–	–	–	–	–	–	LC3A/B-II levels (LC3A/B-II): significant increase
N.N.[Cl][Pt][Cl] [Cisplatin, cis-diammineplatinum (II) dichloride]	–	–	–	–	–	–	EC50 (MCF-7 cells [2]): 8670 nM; EC50 (MDA-MB-231 cells): 6880 nM; EC50 (PE1007070 cells): 10100 nM; EC50 (PE1008032 cells): 19400 nM; EC50 (T47D cells): 50200 nM
C=CCNC1=C2C[C@@H](C)C[C@H](OC)[C@H](O)[C@@H](C)/C=C(\C)[C@H](OC(N)=O)[C@@H](OC)/C=C\C=C(/C)C(=O)NC(=CC1=O)C2=O [17-AAG, 17-(allylamino)-17-demethoxygeldanamycin]	–	–	–	–	–	–	EC50 (MCF-7 cells [2]): 867 nM; EC50 (MDA-MB-231 cells): 1500 nM; EC50 (PE1007070 cells): 1150 nM; EC50 (PE1008032 cells): 1660 nM; EC50 (PE904557a cells): 36.8 nM; EC50 (T47D cells): 1410 nM
Nc1ccn([C@@H]2O[C@H](CO)[C@@H](O)C2(F)F)c(=O)n1 [Gemcitabine, gemcitabine hydrochloride]	2.73 nM	9.63 nM	6.29 nM	–	–	–	–
COc1cccc2c1C(=O)c1c(O)c3c(c(O)c1C2=O)C[C@@](O)(C(=O)CO)C[C@@H]3O[C@H]1C[C@H](N)[C@H](O)[C@H](C)O1 [Doxorubicin, doxorubicin hydrochloride]	261 nM	110 nM	192 nM	677 nM	346 nM	736 nM	–

Now from value to compound, other results behind:

EC50 (MCF-7 cells [2]; Homo sapiens, MCF7, 96 h)	EC50 (MDA-MB-231 cells; Homo sapiens, 96 h)	EC50 (T47D cells; Homo sapiens, 96 h)	Compound	EC50 (PE1007070 cells; [3])	EC50 (PE1008032 cells; [3])	EC50 (PE904557a cells; Homo sapiens, 96 h)	further results
21.6 nM	23.1 nM	31 nM	Cc1[nH]c2ccccc2c1CCNCc1ccc(/C=C/C(=O)NO)cc1 [LBH589, panobinostat]	185 nM	13.7 nM	90.5 nM	–
0.299 nM	2.52 nM	13.7 nM	CC(=O)O[C@H]1C(=O)[C@@]2(C)[C@H]([C@H](OC(=O)c3ccccc3)[C@]3(O)C[C@H](OC(=O)[C@H](O)[C@@H](NC(=O)c4ccccc4)c4ccccc4)C(C)=C1C3(C)C)[C@]1(OC(C)=O)CO[C@@H]1C[C@@H]2O [Taxol, paclitaxel]	–	–	–	–
5.71 nM	35 nM	33 nM	CC(C)C[C@H](NC(=O)[C@H](Cc1ccccc1)NC(=O)c1cnccn1)B(O)O [Bortezomib, bortezomib]	14.6 nM	3.33 nM	32 nM	–
